# Entries after “also recorded” stand apart in the source; their conditions may differ.
# Legend:
# 3T3-L1 adipocytes [1] = assay: Glucose transport stimulatory (GTS) activity, 2-deoxy-D-[3H]glucose uptake; assay type: cell-based; conditions: for GTS activity (in words): 3T3-L1 cell system; for glucose uptake by the cells: 20-40 μM
# Experimental: (§1) PGG, either as a mixture or as single isomer (α or β), is added to either adipocytes (A) or preadipocytes (B). GTS activity (A) and AD activity (B) of PGG are measured by ^3H-glucose uptake. GLUT4 is not expressed in preadipocytes, so glucose uptake can be used as an indirect measurement of adipocyte differentiation.
# Glucose uptake activity in cells may be analyzed by measuring the uptake of 2-deoxy-D-[^3H] glucose using a standard assay. Confluent 3T3-L1 adipocytes grown in 12-well plates are washed twice with serum-free DMEM and incubated with 1 mL of the same medium at 37° C. for 2 h. The cells are washed 3 times with Krebs-Ringer-Hepes (KRP) buffer and incubated with 0.9 mL KRP buffer at 37° C. for 30 min. […] Glucose uptake is initiated by addition of 0.1 mL KRP buffer and 37 MBq/L 2-deoxy-D-[^3H] glucose and 1 mmol/L glucose as final concentrations. After 10 min, glucose uptake is terminated by washing the cells 3 times with cold PBS. The cells are lysed with 0.7 mL of 1% Triton X-100 at 37° C. for 20 min. The radioactivity retained by the cell lysates is determined by a scintillation counter. The dosage that induces the maximal glucose uptake can be selected among the experimental samples.
# 3T3-L1 adipocytes were purchased from ATCC, and maintained and passed as preadipocytes in DMEM supplemented with 10% calf serum in a 37° C. incubator with 10% CO2 as required by the cells. The cells were induced to differentiate into adipocytes by addition of MDI induction cocktail as described in Liu, F., Kim, J., Li, Y., Liu, X., Li, J. & Chen, X. (2001) An extract of Lagerstroemia speciosa L. has insulin-like glucose uptake-stimulatory and adipocyte differentiation-inhibitory activities in 3T3-L1 cells. J. Nutrition 131:2242-224, which is specifically incorporated herein by reference. Varying amounts of α-PGG and β-PGG were then added to the medium and the amount of glucose taken up by control and treated cells determined using a standard glucose uptake assay, as described in Liu et al. As shown in FIG. 2A chemically synthesized and plant derived β-PGG have similar glucose transport stimulatory (GTS). The GTS activity of α-PGG is consistently 10-20% higher than that of β-PGG (FIG. 2).
# Confluent 3T3-L1 adipocytes grown in 12-well plates were washed twice with serum-free DMEM and incubated with 1 mL of the same medium at 37° C. for 2 h. The cells were washed 3 times with Krebs-Ringer-Hepes (KRP) buffer and incubated with 0.9 mL KRP buffer at 37° C. for 30 min. Compounds listed in the table below were then added at 20-40 μM (final concentration?) and adipocytes were incubated at 37° C. for 15 min. Glucose uptake was initiated by addition of 0.1 mL KRP buffer and 37 MBq/L 2-deoxy-D-[3H] glucose and 1 mmol/L glucose as final concentrations. After 10 min, glucose uptake was terminated by washing the cells 3 times with cold PBS. The cells were lysed with 0.7 mL of 1% Triton X-100 at 37° C. for 20 min. The radioactivity retained by the cell lysates is determined by a scintillation counter.
# [2] = target: T1, insulin receptor IR in 3T3-L1 adipocytes (Mus musculus, UniProt P15208); assay: 125I-insulin binding in the presence of PGG; conditions: FIG. 4
# T1 construct: host or cells: 3T3-L1 adipocytes
# T1 sequence (P15208 28-748 limits assumed): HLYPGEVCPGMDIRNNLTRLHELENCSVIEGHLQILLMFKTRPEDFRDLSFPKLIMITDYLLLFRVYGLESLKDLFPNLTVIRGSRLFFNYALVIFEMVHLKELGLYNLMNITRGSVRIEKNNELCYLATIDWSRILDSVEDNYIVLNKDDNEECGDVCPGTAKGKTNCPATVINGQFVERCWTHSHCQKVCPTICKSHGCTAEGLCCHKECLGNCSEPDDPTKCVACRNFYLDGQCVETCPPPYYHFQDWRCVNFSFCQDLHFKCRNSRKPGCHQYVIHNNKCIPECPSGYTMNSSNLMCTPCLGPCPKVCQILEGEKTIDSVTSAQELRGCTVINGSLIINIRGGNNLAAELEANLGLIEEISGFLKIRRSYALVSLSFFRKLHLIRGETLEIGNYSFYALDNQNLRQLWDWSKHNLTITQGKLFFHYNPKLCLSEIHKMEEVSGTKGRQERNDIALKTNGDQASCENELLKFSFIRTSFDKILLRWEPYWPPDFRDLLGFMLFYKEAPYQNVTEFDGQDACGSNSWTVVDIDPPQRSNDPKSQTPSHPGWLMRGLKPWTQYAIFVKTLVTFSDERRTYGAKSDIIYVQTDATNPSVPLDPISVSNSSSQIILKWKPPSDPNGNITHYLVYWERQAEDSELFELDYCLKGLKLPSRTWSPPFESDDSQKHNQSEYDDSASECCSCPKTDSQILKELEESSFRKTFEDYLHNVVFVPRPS
# T1 sequence (P15208 753-1372 limits assumed): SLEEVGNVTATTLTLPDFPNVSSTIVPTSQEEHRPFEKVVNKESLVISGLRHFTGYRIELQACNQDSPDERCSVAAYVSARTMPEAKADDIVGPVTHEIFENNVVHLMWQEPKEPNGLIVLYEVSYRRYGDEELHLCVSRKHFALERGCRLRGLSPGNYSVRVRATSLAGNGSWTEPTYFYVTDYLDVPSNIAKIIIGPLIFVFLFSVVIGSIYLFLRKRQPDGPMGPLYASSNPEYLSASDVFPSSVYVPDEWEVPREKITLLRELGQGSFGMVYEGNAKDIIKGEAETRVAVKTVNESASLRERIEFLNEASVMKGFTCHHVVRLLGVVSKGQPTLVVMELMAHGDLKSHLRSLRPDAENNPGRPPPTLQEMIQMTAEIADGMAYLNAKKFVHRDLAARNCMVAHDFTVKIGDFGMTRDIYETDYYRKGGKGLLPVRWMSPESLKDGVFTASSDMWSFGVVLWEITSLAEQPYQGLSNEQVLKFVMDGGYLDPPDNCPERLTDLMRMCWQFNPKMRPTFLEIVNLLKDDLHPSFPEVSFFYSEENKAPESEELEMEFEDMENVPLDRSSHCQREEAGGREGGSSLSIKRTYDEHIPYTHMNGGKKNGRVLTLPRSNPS
# gelatin, BSA, ovalbumin = assay: Competitive protein binding assay with 125I BSA tracer; conditions: FIG. 5
# Experimental: A fixed quantity of ^125I BSA was incubated with PGG in the presence of variable amount of either cold gelatin, or BSA, or ovalbumin. Bound was separated from free by precipitation and was expressed as the % bound in the absence of competitor.
# A competitive binding assay using radiolabeled bovine serum albumin (BSA) as the tracer was used to determine whether PGG can bind proteins selectively. The relative affinities of three standard proteins for PGG differ from one another by at least 10-fold (FIG. 5), and the difference of the binding affinities of PGG to gelatin and ovalbumin is more than 100-fold.
# Akt in 3T3-L1 adipocytes = assay: Western blot of Akt phosphorylation; assay type: cell-based; conditions: PGG 15 μM and 30 μM, FIG. 7
# Description: Differentially treated adipocytes were lysed, the cell proteins analyzed by SDS-PAGE.
# ob/ob mice = assay: Glucose tolerance test in ob/ob mice; assay type: in vivo; conditions: ob/ob mice
# Experimental: FIG. 11. Effect of PGG on blood glucose levels in db/db and ob/ob mice. Various doses of α-PGG were orally delivered without glucose to db/db mice(A) or with glucose to ob/ob mice (B) mice. At different times post the delivery, glucose was determined in samples from tail blood.
# FIG. 12. PGG protects ob/ob mice from hyperglycemia immediately after glucose challenge and hypoglycemia several days after the challenge. At various time points after the glucose challenge, blood glucose levels were measured in tail blood.
# To determine if α-PGG is also effective in improving glucose tolerance in diabetic and obese mice, a glucose tolerance test was performed using ob/ob mice. Glucose or glucose plus α-PGG were orally delivered into male ob/ob mice, and blood glucose levels were measured at various times post glucose/PGG administration.
# A single high does of glucose in ob/ob mice can be fatal, either because of the very high levels of blood glucose levels […] after the glucose challenge or because of the abnormally low glucose levels 2-3 days after the glucose challenge. […] Although the protection mechanisms are unknown at this time, it is very likely that α-PGG protected the ob/ob mice not only by its GTS activity, but also some other activity such as AD-related activity.
# 3T3-L1 preadipocytes [3] = assay: Adipocyte differentiation (AD) of preadipocytes, MDI induction, Oil Red O staining and glucose uptake; assay type: cell-based
# Experimental: as §1
# Ten days after induction, the cells were stained with Oil Red 0 and photographed at magnification X200. Only those cells that contain fat vesicles (triglyceride) can be stained.
# After about 10 days MDI induces differentiation, which is clearly visible as the change from fibroblast-like preadipcytes to round-shaped, fat vesicle-containing adipocytes.
# 3T3-L1 adipocytes were purchased from ATCC, and maintained and passed as preadipocytes in DMEM supplemented with 10% calf serum in a 37° C. incubator with 10% CO2 as required by the cells. To test the effect of PGG on adipogenesis, the preadipocytes were incubated either with a differentiation-induction cocktail comprised of 3-isobutyl-1-methylxanthine, […], a cocktail comprised of 3-isobutyl-1-methylxanthine, dexamethasone (MD) and PGG; or with MDI plus PGG.
# In order to study the mechanism by which PGG inhibits 3T3-L1 preadipocyte differentiation, we used gene expression studies. This strategy allows us to determine whether PGG specifically acts on genes that participate in the differentiation process. […] After about 10 days MDI induces differentiation, which is clearly visible as the change from fibroblast-like preadipcytes to round-shaped, fat vesicle-containing adipocytes (FIG. 8 middle).
# Normal (healthy) mice = assay: Blood glucose in normal mice at basal glucose level (hypoglycemia test); conditions: given 120 min after 40 mg oral glucose; PGG oral, insulin intraperitoneal
# Experimental: Normal (healthy) mice were orally fed with 40 mg of glucose at time zero. […] Thus, PGG reduces blood glucose level when it is higher than normal.
# [4] = test system: PPARγ and C/EBPα gene expression in 3T3-L1 preadipocytes; assay: Northern blot analysis of differentiation gene expression; assay type: cell-based; conditions: FIG. 9
# Experimental: FIG. 9. Northern blot analysis of PPARγ and C/EBPα gene expression in 3T3-L1 preadipocytes. Differentially treated preadipocytes were analyzed for their mRNA expression at various times post treatment. Lane 1: No treatment; Lane 2=MDI; Lane 3=30 μM PGG+MDI; Lane 4=30 μM of PGG alone. Times=times post treatment when mRNA was isolated.
# At various times the treated cells were harvested, the total RNA was isolated, and expression was analyzed by Northern blots using probes complementary to various genes that are involved in the differentiation process.
# 3T3-L1 adipocytes [5] = assay: Glucose transport induced by insulin or PGG in the presence of insulin-signaling pathway inhibitors; assay type: cell-based; conditions: FIG. 6
# Experimental: The glucose transport activity of the treated cells was measured by ^3H glucose taken up by the cells. HNMPA-(AM)3 inhibits IR Tyr kinase activity, Cytochalasin B inhibits GLUT4, Wortmannin inhibits PI-3K, respectively.
# 3T3-L1 preadipocytes [6] = assay: Clonal expansion / cell proliferation assay by LDH activity; assay type: cell-based; conditions: in the presence of MDI, FIG. 10
# Experimental: Preadipocytes were induced to undergo clonal expansion by MDI, or α-PGG, or β-PGG in the presence of MDI. 24 or 48 hrs after induction, the media was removed and the cells were lysed. The […] (LDH) activity of the cell lysates was measured by LDH kit. Cell growth media were also collected and their LDH activity from dead cells was also measured (not shown on this graph). LDH activity is a constant per cell in a given cell type, the LDH activity measured is proportional to the number of cells in the samples.
# A cell proliferation assay was used to determine if PGG inhibits adipocyte differentiation by blocking clonal expansion. […] The basis for the difference between the anomers in clonal expansion and differentiation is not known.
compound,measurement,setting,value
"O=C(O[C@@H]1Cc2c(O)cc(O)cc2O[C@@H]1c1cc(O)c(O)c(O)c1)c1cc(O)c(O)c(O)c1 [EGCG, reference compound]",GTS activity (in words),3T3-L1 adipocytes [1],no activity
"O=C[C@H](OC(=O)c1cc(O)c(O)c(O)c1)[C@@H](OC(=O)c1cc(O)c(O)c(O)c1)[C@H](OC(=O)c1cc(O)c(O)c(O)c1)[C@@H](COC(=O)c1cc(O)c(O)c(O)c1)OC(=O)c1cc(O)c(O)c(O)c1 [PGG, penta-O-galloyl-D-glucose]",competition with / displacement of insulin at the insulin binding site on IR,"[2]; 8 pM 125I-insulin, 0.1 to 20 μM PGG, overnight 4° C.",does not compete with insulin; also recorded: unable to displace insulin from IR
same,insulin binding at higher PGG concentrations,[2]; PGG above 20 μM,Insulin binding increased
same,difference of binding affinities of PGG to gelatin and ovalbumin,"gelatin, BSA, ovalbumin",more than 100 fold
same,difference between relative affinities of three standard proteins for PGG,"gelatin, BSA, ovalbumin; gelatin, BSA, ovalbumin",at least 10 fold
same,GTS activity (in words),3T3-L1 adipocytes [1],high activities
same,phosphorylation of Akt,Akt in 3T3-L1 adipocytes,phosphorylated
same,toxic effects,ob/ob mice,No PGG-related toxic effects were observed
same,induction of differentiation when insulin in MDI was substituted by PGG,"3T3-L1 preadipocytes [3]; MD plus PGG, FIG. 2B",failed to induce differentiation
same,differentiation of preadipocytes treated with MDI plus compound,"3T3-L1 preadipocytes [3]; about 10 days, 30 μM PGG, FIG. 8",retain their fibroblast-like morphology and remain fat vesicle-free
same,hypoglycemia / blood glucose below basal levels,Normal (healthy) mice,does not further reduce bood glucose levels beyond normal or basal levels
same,"expression of genes PPAR-γ, c/EBP induced by MDI",[4]; 30 μM PGG+MDI,completely abolished
same,β-actin expression,[4],not significantly affected
"O=C(OC[C@H]1OC(OC(=O)c2cc(O)c(O)c(O)c2)[C@H](OC(=O)c2cc(O)c(O)c(O)c2)[C@@H](OC(=O)c2cc(O)c(O)c(O)c2)[C@H]1OC(=O)c1cc(O)c(O)c(O)c1)c1cc(O)c(O)c(O)c1 (stereo partly shown) [PGGal, Pentagalloyl galactose]",GTS activity relative to PGG,3T3-L1 adipocytes [1]; 3T3-L1 cells,60-70%
C=C1[C@@H](C)[C@H]2[C@H](Cc3ccccc3)NC(=O)[C@]23OC(=O)/C=C/[C@H](O)CCC[C@@H](C)C/C=C/[C@H]3[C@@H]1O [cytochalasin B],inhibition of the GTS activity mediated by either insulin or PGG,3T3-L1 adipocytes [5],completely inhibited
"O=C(O[C@H]1OC[C@@H](OC(=O)c2cc(O)c(O)c(O)c2)[C@H](OC(=O)c2cc(O)c(O)c(O)c2)[C@H]1OC(=O)c1cc(O)c(O)c(O)c1)c1cc(O)c(O)c(O)c1 [α-XylG4, Tetrakis-O-(3,4,5-trihydroxybenzoyl) -α-D-xylopyranose]",glucose uptake by the cells,3T3-L1 adipocytes [1]; 3T3-L1 adipocytes,increased glucose uptake
"O=C(OC[C@H]1O[C@@H](OC(=O)c2ccc(O)c(O)c2)[C@H](OC(=O)c2ccc(O)c(O)c2)[C@@H](OC(=O)c2ccc(O)c(O)c2)[C@@H]1OC(=O)c1ccc(O)c(O)c1)c1ccc(O)c(O)c1 [β-Glc(G-3,4-OH2)5, Pentakis-O-(3,4-dihydroxybenzoyl) -β-D-glucopyranose]",glucose uptake by the cells,3T3-L1 adipocytes [1]; 3T3-L1 adipocytes,increased glucose uptake
"O=C(OC[C@H]1O[C@@H](OC(=O)c2cc(O)c(O)c(O)c2)[C@H](OC(=O)c2cc(O)c(O)c(O)c2)[C@@H](OC(=O)c2cc(O)c(O)c(O)c2)[C@@H]1OC(=O)c1cc(O)c(O)c(O)c1)c1cc(O)c(O)c(O)c1 [β-PGG, 1,2,3,4,6-penta-O-galloyl-β-D-glucose]",first round of clonal expansion,3T3-L1 preadipocytes [6],not inhibited
same,second round of clonal expansion,3T3-L1 preadipocytes [6],completely inhibited
same,"GTS activity, synthesized versus plant derived β-PGG","3T3-L1 adipocytes [1]; 3T3-L1 adipocytes, FIG. 2A",similar
"insulin: hormone, positive control [reference compound]",hypoglycemia / blood glucose below basal levels,Normal (healthy) mice,resulted in a hypoglycemic condition
pentagalloyl deoxynojirimycin [PG-DJM],GTS activity (in words),3T3-L1 adipocytes [1],no detectable GTS activity

# Source: patent US20060058243A1, “Methods and compositions for treating diabetes mellitis” (priority 2002, published 2006)
